# Test results taken from PMC11513893, “Discovery of Oral Degraders of the ROS1 Fusion Protein with Potent Activity against Secondary Resistance Mutations” (Journal of Medicinal Chemistry, 2024).
# Experiments:
# RET [1] = target: T1, RET (Homo sapiens, UniProt P07949); experiment: Degradation assay; format: cell-based; conditions: average of duplicate measurements
# Procedure: (§1) However, the degradation selectivity of 9o often contrasts with its kinase binding selectivity as determined in cells treated with 9o where the kinase level was measurable by Western blot analysis. […] For example, FLT3, CHEK2, and FES, all with kinase binding at <10 nM, were only moderately or minimally degraded, if at all (Table 9).
# CHEK2 = CHEK2 (Homo sapiens, UniProt O96017); experiment: Degradation assay; format: cell-based; conditions: average of duplicate measurements
# Procedure: as §1
# C-MET = C-MET (Homo sapiens, UniProt P08581); experiment: Degradation assay; format: cell-based; conditions: average of duplicate measurements
# Procedure: as §1
# FER [2] = target: T2, FER (Homo sapiens, UniProt P16591); experiment: Degradation assay; format: cell-based; conditions: average of duplicate measurements
# Procedure: as §1
# CLK1 = CLK1 (Homo sapiens, UniProt P49759); experiment: Degradation assay; format: cell-based; conditions: average of duplicate measurements
# Procedure: as §1
# ERBB4/HER4 = ERBB4/HER4 (Homo sapiens, UniProt Q15303); experiment: Degradation assay; format: cell-based; conditions: average of duplicate measurements
# Procedure: as §1
# LTK = LTK (Homo sapiens, UniProt P29376); experiment: Degradation assay; format: cell-based; conditions: average of duplicate measurements
# Procedure: as §1
# CAMK2D = experiment: Degradation assay; format: cell-based; conditions: average of duplicate measurements
# Procedure: as §1
# FLT3 = FLT3 (Homo sapiens, UniProt P36888); experiment: Degradation assay; format: cell-based; conditions: average of duplicate measurements
# Procedure: as §1
# ERBB2 = ERBB2 (Homo sapiens, UniProt P04626); experiment: Degradation assay; format: cell-based; conditions: average of duplicate measurements
# Procedure: as §1
# H2228 cells = experiment: Whole cell proteomic analysis; format: cell-based, human; conditions: 100 nM, 24 h
# Procedure: To minimize the effect of signaling blockade on proteomic changes, we decided that a more accurate quantitative determination of proteomic alterations would be to compare degrader-treated to inhibitor-treated.
# Cell pellets were dissolved in 1 mL of RIPA buffer, 10 μL of phosphatase inhibitor, and 10 μL of protease inhibitor. Proteins were extracted and concentration was determined by the BCA assay. The protein samples were digested with sequencing grade modified trypsin (Promega Corp; Madison, WI) according to the manufacturer’s instructions. The peptides were labeled using the TMT Isobaric Mass Tagging kit (Thermo Fisher Scientific; # 90,060–90,061; Waltham, MA). The labeled peptide aliquots were then pooled together for subsequent fractionation and analysis. The TMT-labeled peptide mixtures were separated by an automated Easy-nLC1000 system coupled with a Q-Exactive spectrometer (Thermo Finnigan, Waltham, MA). The identification of proteins was performed using Proteome Discoverer software v2.3 (Thermo Fisher Scientific; Waltham, MA) and Mascot v2.6 (Matrix Science, Boston, MA), based on “Uniprot Human” database. The proteins that were identified on the basis of at least one unique peptide were included in the data. The ratios of TMT reporter ion abundance in 9o-treated cells and inhibitor-treated cells were used to calculate protein relative abundance.
# Ba/F3 ROS1-G2032R = experiment: Antiproliferation assay; format: cell-based, mouse; conditions: Mus musculus, BaF3; Ba/F3 cells, cell growth inhibition, 72 h
# RET [3] = target: T1, RET; experiment: Kinase assay; format: biochemical; conditions: average of duplicate measurements
# [4] = test system: Ba/F3 ROS1 (SLC34A2) G2032R-F2075 V; experiment: Antiproliferation assay; format: cell-based; conditions: Mus musculus, BaF3; Ba/F3 cell line
# Procedure: (§2) Ba/F3 immortalized murine bone marrow–derived pro-B cells were obtained from Creative Biogene (Shirley, NY) and cultured in RPMI supplemented with 10% FBS and IL3 (0.5 ng/mL). Ba/F3 cells expressing ROS1 variants were maintained in RPMI supplemented with 10% FBS and puromycin (0.7 mg/mL). […] Each compound was dissolved in DMSO and serially diluted in RPMI for cell culture experiments.
# (§3) To assess the 72 h effect of drug treatment on cell proliferation, 2000 to 3000 cells were plated in replicates of three in 96-well plates. The plates were placed in an incubator at 37 °C, 5% CO2 for 72 h. Following drug treatments, the cells were incubated with the Alamar Blue Assay reagent (BioRad), 5 μL each well for 4 h at 37 °C and 5% CO2. Luminescence was measured on a multiplate reader and analyzed. […] IC50 values were determined using a nonlinear regression model with a sigmoidal dose response in GraphPad. The data were collected based on triplicate experiments, and presented as mean ± SD.
# [5] = test system: Ba/F3 ROS1 (SLC34A2) G2032R; experiment: Antiproliferation assay; format: cell-based; conditions: Mus musculus, BaF3; Ba/F3 cell line
# Procedure: as §2, §3
# Ba/F3 ROS1 (SLC34A2) = experiment: Antiproliferation assay; format: cell-based; conditions: Mus musculus, BaF3; Ba/F3 cell line
# Procedure: as §2, §3
# [6] = test system: Ba/F3 ROS1 (SLC34A2) D2033N; experiment: Antiproliferation assay; format: cell-based; conditions: Mus musculus, BaF3; Ba/F3 cell line
# Procedure: as §2, §3
# [7] = test system: Ba/F3 ROS1 (SLC34A2) V2098I; experiment: Antiproliferation assay; format: cell-based; conditions: Mus musculus, BaF3; Ba/F3 cell line
# Procedure: as §2, §3
# [8] = test system: Ba/F3 ROS1 (SLC34A2) L2026M; experiment: Antiproliferation assay; format: cell-based; conditions: Mus musculus, BaF3; Ba/F3 cell line
# Procedure: as §2, §3
# Ba/F3 ROS1 G2032R-F2075V = experiment: Antiproliferation assay; format: cell-based; conditions: Mus musculus, BaF3; Ba/F3 cells, cell growth inhibition
# Text: (§4) To assess targeted degradation of ROS1 fusion proteins, we first established a mouse pro-B cell line Ba/F3 as a model expressing the CD74-ROS1 oncogene or CD74-ROS1 with clinically observed secondary/tertiary mutations. The Ba/F3 cell line is dependent on interleukin-3 for survival and proliferation. Upon transduction of oncogenic ROS1, Ba/F3 cells become independent of interleukin-3 but dependent on the transduced driver gene.
# as §2, §3
# (§5) The resulting virus was used to infect Ba/F3 cells. After retroviral infection, Ba/F3 cells were selected by incubation with puromycin (0.7 mg/mL) for 2 weeks. For Ba/F3 cells infected by the CD74–ROS1 variants, IL3 was withdrawn from the culture medium at least 2 weeks before the experiments.
# Ba/F3 ROS1 D2033N = experiment: Antiproliferation assay; format: cell-based; conditions: Mus musculus, BaF3; Ba/F3 cells, cell growth inhibition
# Text: as §4, §2, §3, §5
# Ba/F3 ROS1 L2026M = experiment: Antiproliferation assay; format: cell-based; conditions: Mus musculus, BaF3; Ba/F3 cells, cell growth inhibition
# Text: as §4, §2, §3, §5
# CHEK1 = CHEK1 (Homo sapiens, UniProt O14757); experiment: Kinase assay; format: biochemical; conditions: average of duplicate measurements
# FER [9] = target: T2, FER; experiment: Kinase assay; format: biochemical; conditions: average of duplicate measurements
# PTK2B = PTK2B (Homo sapiens, UniProt Q14289); experiment: Kinase assay; format: biochemical; conditions: average of duplicate measurements
# T2 sequence (P16591 whole entry, species assumed): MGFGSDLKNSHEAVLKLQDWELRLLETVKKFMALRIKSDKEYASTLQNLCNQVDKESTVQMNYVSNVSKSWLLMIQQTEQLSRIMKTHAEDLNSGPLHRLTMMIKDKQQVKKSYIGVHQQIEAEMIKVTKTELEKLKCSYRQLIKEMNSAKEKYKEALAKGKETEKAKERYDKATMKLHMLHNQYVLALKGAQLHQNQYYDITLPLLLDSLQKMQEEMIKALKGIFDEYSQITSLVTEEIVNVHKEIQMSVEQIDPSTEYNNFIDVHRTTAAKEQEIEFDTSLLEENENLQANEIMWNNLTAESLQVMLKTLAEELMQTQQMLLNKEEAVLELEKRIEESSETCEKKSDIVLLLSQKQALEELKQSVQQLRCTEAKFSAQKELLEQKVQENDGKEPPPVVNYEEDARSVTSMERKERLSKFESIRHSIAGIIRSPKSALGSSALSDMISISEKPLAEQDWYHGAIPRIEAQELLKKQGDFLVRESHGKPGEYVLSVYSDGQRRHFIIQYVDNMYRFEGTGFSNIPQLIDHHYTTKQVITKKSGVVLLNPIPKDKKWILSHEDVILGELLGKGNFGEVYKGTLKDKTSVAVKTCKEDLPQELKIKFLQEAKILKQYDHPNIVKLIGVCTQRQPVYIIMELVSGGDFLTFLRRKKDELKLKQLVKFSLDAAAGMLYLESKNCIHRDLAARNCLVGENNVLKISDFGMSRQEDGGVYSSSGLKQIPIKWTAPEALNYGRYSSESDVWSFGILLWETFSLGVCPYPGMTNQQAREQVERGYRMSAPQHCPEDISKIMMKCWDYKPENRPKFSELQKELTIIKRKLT
# T1 sequence (P07949 29-1114, species assumed): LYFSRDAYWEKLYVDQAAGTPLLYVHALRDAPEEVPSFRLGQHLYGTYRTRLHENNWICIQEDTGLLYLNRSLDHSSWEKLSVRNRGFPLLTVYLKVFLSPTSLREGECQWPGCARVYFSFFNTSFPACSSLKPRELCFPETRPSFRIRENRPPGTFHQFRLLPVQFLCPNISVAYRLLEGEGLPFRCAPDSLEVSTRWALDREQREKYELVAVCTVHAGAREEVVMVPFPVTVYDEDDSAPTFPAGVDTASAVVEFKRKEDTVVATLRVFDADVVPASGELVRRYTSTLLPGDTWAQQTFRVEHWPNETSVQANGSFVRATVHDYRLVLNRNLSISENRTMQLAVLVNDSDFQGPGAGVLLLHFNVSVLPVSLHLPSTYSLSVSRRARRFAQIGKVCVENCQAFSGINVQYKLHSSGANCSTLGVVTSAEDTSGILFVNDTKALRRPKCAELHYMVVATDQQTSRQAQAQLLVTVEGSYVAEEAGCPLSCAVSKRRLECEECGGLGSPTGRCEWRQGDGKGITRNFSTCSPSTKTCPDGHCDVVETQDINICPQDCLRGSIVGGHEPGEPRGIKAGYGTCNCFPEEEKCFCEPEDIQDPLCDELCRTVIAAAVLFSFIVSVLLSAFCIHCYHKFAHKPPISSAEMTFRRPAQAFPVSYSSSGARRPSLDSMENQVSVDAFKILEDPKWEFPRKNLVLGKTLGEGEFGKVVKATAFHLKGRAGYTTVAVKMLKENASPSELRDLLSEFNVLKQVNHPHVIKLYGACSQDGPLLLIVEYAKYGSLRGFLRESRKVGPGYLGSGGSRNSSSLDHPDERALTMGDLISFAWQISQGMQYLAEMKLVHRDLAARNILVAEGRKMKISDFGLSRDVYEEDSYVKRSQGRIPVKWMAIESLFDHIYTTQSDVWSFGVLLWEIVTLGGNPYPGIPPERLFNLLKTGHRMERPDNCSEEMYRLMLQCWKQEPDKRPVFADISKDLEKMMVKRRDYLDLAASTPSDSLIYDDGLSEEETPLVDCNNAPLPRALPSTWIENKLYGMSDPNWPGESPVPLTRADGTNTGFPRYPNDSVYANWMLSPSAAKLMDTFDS
# Sequence of ERBB4/HER4 (Q15303 26-1308): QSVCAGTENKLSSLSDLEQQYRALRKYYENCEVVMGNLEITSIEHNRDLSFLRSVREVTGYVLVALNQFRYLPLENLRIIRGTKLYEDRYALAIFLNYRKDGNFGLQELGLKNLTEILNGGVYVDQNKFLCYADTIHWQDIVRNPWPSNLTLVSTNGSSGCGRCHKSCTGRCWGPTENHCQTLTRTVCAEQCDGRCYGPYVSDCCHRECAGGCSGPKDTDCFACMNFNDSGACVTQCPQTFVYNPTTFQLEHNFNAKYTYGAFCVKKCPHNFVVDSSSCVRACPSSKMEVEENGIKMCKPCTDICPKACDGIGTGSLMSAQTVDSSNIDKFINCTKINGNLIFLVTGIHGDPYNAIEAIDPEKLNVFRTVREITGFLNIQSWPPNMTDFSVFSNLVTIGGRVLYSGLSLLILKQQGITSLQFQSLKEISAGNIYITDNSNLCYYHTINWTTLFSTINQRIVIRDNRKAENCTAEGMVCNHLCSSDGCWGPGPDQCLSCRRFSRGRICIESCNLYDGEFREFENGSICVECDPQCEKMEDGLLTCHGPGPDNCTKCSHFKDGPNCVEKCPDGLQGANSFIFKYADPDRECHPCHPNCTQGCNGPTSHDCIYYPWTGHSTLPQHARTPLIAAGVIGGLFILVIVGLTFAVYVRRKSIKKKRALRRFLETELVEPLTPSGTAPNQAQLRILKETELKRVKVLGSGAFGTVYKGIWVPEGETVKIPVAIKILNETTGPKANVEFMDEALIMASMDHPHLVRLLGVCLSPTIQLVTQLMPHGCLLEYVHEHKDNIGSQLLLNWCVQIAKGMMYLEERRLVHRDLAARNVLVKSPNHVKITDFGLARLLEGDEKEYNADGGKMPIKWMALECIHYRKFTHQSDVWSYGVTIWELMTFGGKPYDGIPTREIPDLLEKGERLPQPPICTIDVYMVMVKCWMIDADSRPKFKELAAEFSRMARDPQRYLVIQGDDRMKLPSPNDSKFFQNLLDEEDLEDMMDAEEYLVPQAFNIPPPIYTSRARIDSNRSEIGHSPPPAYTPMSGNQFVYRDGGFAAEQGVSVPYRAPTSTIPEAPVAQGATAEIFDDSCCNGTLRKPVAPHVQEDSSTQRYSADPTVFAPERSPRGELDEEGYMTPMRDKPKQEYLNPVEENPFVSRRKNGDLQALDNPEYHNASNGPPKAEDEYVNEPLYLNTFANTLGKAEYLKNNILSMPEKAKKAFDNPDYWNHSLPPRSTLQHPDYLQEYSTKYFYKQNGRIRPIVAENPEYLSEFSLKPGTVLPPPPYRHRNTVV
# Sequence of CHEK2 (O96017 whole entry, species assumed): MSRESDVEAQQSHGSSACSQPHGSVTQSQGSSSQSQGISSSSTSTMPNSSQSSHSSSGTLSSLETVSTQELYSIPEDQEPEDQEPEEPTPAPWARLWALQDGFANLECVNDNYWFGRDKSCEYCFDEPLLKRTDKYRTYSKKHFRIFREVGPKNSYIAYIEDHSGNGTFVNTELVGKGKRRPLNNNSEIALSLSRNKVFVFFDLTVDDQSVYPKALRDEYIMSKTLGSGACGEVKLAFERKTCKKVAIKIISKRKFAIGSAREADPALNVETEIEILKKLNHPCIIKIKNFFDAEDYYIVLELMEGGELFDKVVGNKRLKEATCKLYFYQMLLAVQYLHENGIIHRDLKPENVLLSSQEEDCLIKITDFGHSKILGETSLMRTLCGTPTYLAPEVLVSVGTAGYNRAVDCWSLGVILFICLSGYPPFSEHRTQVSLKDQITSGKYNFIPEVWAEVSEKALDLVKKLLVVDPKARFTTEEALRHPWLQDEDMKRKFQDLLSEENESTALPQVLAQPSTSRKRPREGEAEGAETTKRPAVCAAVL
# Sequence of ERBB2 (P04626 23-1255, species assumed): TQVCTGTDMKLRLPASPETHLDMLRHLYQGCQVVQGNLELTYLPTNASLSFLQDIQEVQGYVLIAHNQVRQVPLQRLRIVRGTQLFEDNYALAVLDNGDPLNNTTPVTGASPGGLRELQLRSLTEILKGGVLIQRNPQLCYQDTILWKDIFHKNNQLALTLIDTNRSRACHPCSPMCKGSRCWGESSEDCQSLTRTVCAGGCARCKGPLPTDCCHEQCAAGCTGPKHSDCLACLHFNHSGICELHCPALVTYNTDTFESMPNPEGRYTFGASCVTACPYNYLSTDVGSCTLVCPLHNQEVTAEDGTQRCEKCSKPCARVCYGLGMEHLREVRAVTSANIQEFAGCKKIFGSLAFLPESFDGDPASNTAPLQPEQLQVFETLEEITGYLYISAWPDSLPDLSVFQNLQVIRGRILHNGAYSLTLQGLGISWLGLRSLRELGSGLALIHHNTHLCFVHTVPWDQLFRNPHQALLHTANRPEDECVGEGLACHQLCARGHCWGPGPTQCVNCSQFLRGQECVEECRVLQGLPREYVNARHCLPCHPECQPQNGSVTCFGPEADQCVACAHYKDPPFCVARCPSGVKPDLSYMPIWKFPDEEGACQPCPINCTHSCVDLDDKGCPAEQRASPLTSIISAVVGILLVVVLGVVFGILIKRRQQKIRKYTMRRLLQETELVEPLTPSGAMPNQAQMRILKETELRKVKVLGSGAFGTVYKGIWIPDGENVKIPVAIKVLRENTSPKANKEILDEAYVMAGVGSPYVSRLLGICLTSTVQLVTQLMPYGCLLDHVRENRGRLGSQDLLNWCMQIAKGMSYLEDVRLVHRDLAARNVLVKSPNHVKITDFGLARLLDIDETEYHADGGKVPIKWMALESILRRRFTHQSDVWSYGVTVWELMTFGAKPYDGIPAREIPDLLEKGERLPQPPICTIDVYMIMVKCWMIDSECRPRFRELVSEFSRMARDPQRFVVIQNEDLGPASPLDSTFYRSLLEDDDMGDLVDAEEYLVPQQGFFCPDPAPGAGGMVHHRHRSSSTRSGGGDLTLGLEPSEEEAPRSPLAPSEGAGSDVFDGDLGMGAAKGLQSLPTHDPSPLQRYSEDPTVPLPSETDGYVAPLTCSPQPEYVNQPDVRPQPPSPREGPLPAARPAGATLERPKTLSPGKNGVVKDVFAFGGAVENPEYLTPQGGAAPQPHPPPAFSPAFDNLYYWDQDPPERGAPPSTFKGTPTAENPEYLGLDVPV
smiles,measurement,setting,value
"COc1cc(N2CCC(N3CCN(CC4CCN(c5ccc6c(c5)CN(C5CCC(=O)NC5=O)C6=O)CC4)CC3)CC2)ccc1Nc1ncc(Cl)c(Nc2ccccc2P(C)(C)=O)n1 (stereo not shown) [9o, 3-(5-(4-((4-(1-(4-((5-Chloro-4-((2-(dimethylphosphoryl)phenyl)amino)pyrimidin-2-yl)amino)-3-methoxyphenyl)piperidin-4-yl)piperazin-1-yl)methyl)piperidin-1-yl)-1-oxoisoindolin-2-yl)piperidine-2,6-dione]",DC50,RET [1],58 nM
same,DC50,CHEK2,187 nM
same,DC50,C-MET,> 1000 nM
same,DC50,FER [2],17 nM
same,DC50,CLK1,> 1000 nM
same,DC50,ERBB4/HER4,> 1000 nM
same,DC50,LTK,> 1000 nM
same,DC50,CAMK2D,264 nM
same,DC50,FLT3,> 1000 nM
same,DC50,ERBB2,474 nM
same,"kinases significantly degraded (proteomics, degrader-treated vs brigatinib-treated)",H2228 cells,only three kinases were significantly degraded
same,IC50,Ba/F3 ROS1-G2032R,6.3 ± 2.1 nM
same,IC50,RET [3],82 nM
same,IC50,[4],5.6 ± 0.6 nM
same,IC50,[5],6.3 ± 1.1 nM
same,IC50,Ba/F3 ROS1 (SLC34A2),1.1 ± 0.4 nM
same,IC50,[6],9.7 ± 2.6 nM
same,IC50,[7],4.6 ± 2.1 nM
same,IC50,[8],2.5 ± 0.6 nM
same,IC50,Ba/F3 ROS1 G2032R-F2075V,5.6 nM
same,IC50,Ba/F3 ROS1 D2033N,9.6 nM
same,IC50,Ba/F3 ROS1 L2026M,2.5 nM
same,IC50,CHEK1,40 nM
same,IC50,FER [9],3.1 nM
same,IC50,PTK2B,34 nM
